Assay results as given in patent US20250000888A1, “METHODS OF TREATING MYELODYSPLASTIC SYNDROMES WITH DECITABINE AND CEDAZURIDINE” (priority 2021, published 2025).
Like-named read-outs stand apart in the source and are kept apart here.

What was measured:
[1] = Phase 3 randomized crossover trial: decitabine total exposure over 5 days (AUC) and plasma pharmacokinetics; format: in vivo, human; conditions: for AUC(0-t): human, plasma, intravenous, 20 mg/m^2/d, read-out: 5-Day Decitabine AUC0-24 LSM
Excerpt: A total of 118 patients was planned for this analysis to provide 90% power at the statistical significance level of 0.05, presuming the true ratio of geometric means is 1.0, the intrapatient coefficient of variation (CV) on an unlogged scale is 0.55, and the 90% confidence interval (CI) equivalence limits for the ratio of geometric means are 0.8 and 1.25. Assuming that 10% of patients would not be evaluable, 132 patients were planned to be randomized.
At least one of either day 1 or 5 decitabine AUC0-24 measurement during the IV decitabine cycle was required to be evaluable. […] Descriptive statistics were calculated for pharmacokinetic values.
Effects of the sequence and cycle were evaluated.

[2] = test system: LINE-1 (long interspersed nuclear element-1) methylation; experiment: Phase 3 trial pharmacodynamics: DNA demethylation by % LINE-1 methylation analysis; format: in vivo, human
[3] = test system: patients with MDS or CMML
Description: Each treatment was given for the first 5 consecutive days of a 28-day cycle. […] Consistent with standard clinical care with parenteral DNMTi, cycles could be delayed or doses reduced if judged necessary for hematologic or nonhematologic recovery.
Efficacy and safety endpoints were calculated using all data through final cutoff.

MDS patients [4] = conditions: intention-to-treat; 15 mg/m^2 IV over 3 hours, every 8 hours for 3 days; BSC 14.9; cited from earlier work
[5] = test system: intermediate or high-risk MDS patients age 60 or older; conditions: low-dose decitabine IV; BSC 8.5; cited from earlier work
MDS patients [6] = conditions: cited from earlier work; for Median survival: previous reports in clinical trials; for Overall response rate: reported in clinical studies
patients with MDS = conditions: BSC arm 12; cited from earlier work

Nc1ncn([C@H]2C[C@H](O)[C@@H](CO)O2)c(=O)n1 [IV decitabine, 5-aza-2′-deoxycytidine]
Peak concentrations, IV vs oral administration ([1]; FIG. 2A): higher after IV vs oral | Time at which peak decitabine plasma concentrations were detected ([1]; after oral and IV therapy, except day 5 IV): 1 h | Time at which peak decitabine plasma concentrations were attained ([1]; day 5 after IV treatment): 30 min | AUC(0-t) ([1]; Primary endpoint, paired, cycles 1 and 2): 865 ng·h/mL | AUC(0-t) ([1]; Sensitivity, paired, includes data excluded from primary endpoint): 870 ng·h/mL | AUC(0-t) ([1]; Sensitivity, unpaired): 866 ng·h/mL | Time plasma concentrations remained above the lower limit of quantification ([1]; in most patients): up to 4 hours | Max. % LINE-1 Demethylation LSM ([2]; Cycle 1): 14.019% | Max. % LINE-1 Demethylation LSM ([2]; Cycle 2): 11.968% | Grade ≥3 TEAE Anemia, % ([3]; Cycles 1 and 2): (32) % | Grade ≥3 TEAE Febrile neutropenia, % ([3]; Cycles 1 and 2): (7) % | Grade ≥3 TEAE Leukopenia, % ([3]; Cycles 1 and 2): (14) % | Grade ≥3 TEAE Neutropenia, % ([3]; Cycles 1 and 2): (29) % | Grade ≥3 TEAE Pneumonia, % ([3]; Cycles 1 and 2): (5) % | Grade ≥3 TEAE Thrombocytopenia, % ([3]; Cycles 1 and 2): (32) % | ≥1 Grade ≥3 TEAE regardless of relation to treatment, % ([3]; Cycles 1 and 2): (67) % | ≥1 TEAE regardless of relation to treatment, % ([3]; Cycles 1 and 2): 96% | TEAE Anemia, % ([3]; Cycles 1 and 2, any grade): (36) % | TEAE Constipation, % ([3]; Cycles 1 and 2, any grade): (20) % | TEAE Decreased appetite, % ([3]; Cycles 1 and 2, any grade): (5) % | TEAE Diarrhea, % ([3]; Cycles 1 and 2, any grade): (11) % | TEAE Dyspnea, % ([3]; Cycles 1 and 2, any grade): (10) % | TEAE Fatigue, % ([3]; Cycles 1 and 2, any grade): (17) % | TEAE Febrile neutropenia, % ([3]; Cycles 1 and 2, any grade): (7) % | TEAE Headache, % ([3]; Cycles 1 and 2, any grade): (14) % | TEAE Nausea, % ([3]; Cycles 1 and 2, any grade): (17) % | TEAE Neutropenia, % ([3]; Cycles 1 and 2, any grade): (34) % | TEAE Thrombocytopenia, % ([3]; Cycles 1 and 2, any grade): (39) % | ≥1 TEAE regardless of relation to treatment, % ([3]; Cycles 1 and 2, listed as IV Decitabine): (96) % | Treatment-related serious AE rate, recalculated ([3]; first 2 cycles, one AE reassigned to IV decitabine given in cycle 1): 4% | Patients reporting ≥1 treatment-related serious AE ([3]; first 2 treatment cycles): 3% | Treatment discontinuation due to an AE ([3]; first 2 treatment cycles): 1 patient | Deaths deemed related to study medication ([3]; of 11 fatal serious AEs, oral: sepsis and pneumonia, IV: septic shock, pneumonia): three | Median survival (MDS patients [4]): 14.0 months | Overall survival (OS) [5]: 10.1 months | Median survival (MDS patients [6]): 14.0-19.4 months | Overall response rate (MDS patients [6]): 32%

Nc1ncn([C@@H]2O[C@H](CO)[C@@H](O)[C@H]2O)c(=O)n1 [azacitidine, 5-azacytidine]
Median time to leukemic transformation or death (patients with MDS): 21 months | Median survival (MDS patients [6]): 12.0-24.5 months | Overall response rate (MDS patients [6]): 44%-60%
